9 compounds from ChEMBL document CHEMBL1131365, “Identification and SAR for a selective, nonpeptidyl thrombin inhibitor” (Bioorg Med Chem Lett, 1998) can be followed below.

In test [1] the target is Prothrombin (Homo sapiens, UniProt P00734). In words: Compound was evaluated for its inhibitory activity against human thrombin.
The target in test [2] is Serine protease 1 (Homo sapiens, UniProt P07477). Put plainly: Compound was evaluated for its inhibitory activity against trypsin.
Sequence of Serine protease 1 (P07477 whole entry): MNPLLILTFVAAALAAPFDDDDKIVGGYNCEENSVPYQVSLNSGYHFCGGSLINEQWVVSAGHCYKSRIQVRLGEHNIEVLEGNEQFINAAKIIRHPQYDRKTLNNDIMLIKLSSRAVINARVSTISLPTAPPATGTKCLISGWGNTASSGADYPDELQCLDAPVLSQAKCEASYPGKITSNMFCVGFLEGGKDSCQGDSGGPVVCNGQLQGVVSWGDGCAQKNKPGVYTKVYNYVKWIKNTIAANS

As a reminder, the Ki is the dissociation constant of the complex between target and ligand, obtained from inhibition or displacement. For the compound `c1ccc(COc2ccc(C[n+]3ccccc3)cc2)cc1`, the inhibition constant (Ki) in test [1] was > 500 µM.
As to `Nc1ccc(Cc2ccc(OCc3ccccc3)cc2)cc1`, the Ki in test [1] and in test [2] was > 10 µM each time.
In turn, `NC1CCN(Cc2ccc(OCc3ccccc3)cc2)CC1` displayed a Ki in test [1] of 581 µM.
On to `Nc1cc[n+](Cc2ccc(OC(CCc3ccccc3)c3ccccc3)cc2)cc1` (stereo unspecified), for which the Ki in test [1] came to 0.16 µM; in test [2], 16 µM.
Taken in the same sequence, the figures for `c1ccc(C(Oc2ccc(CNc3ccncc3)cc2)c2ccccc2)cc1` were 1.3 µM and 77 µM.
Taken in the same sequence, the figures for `Nc1cc[n+](Cc2ccc(OCc3ccccc3)cc2)cc1` were 0.7 µM and 77 µM.
Consider `c1ccc(COc2ccc(CNc3ccncc3)cc2)cc1`, for which the Ki in test [1] came to 4.7 µM; in test [2], 233 µM.
For `Nc1cc[n+](Cc2ccc(OC(c3ccccc3)c3ccccc3)cc2)cc1`, in that order: 0.058 µM and 517 µM.
Take `c1ccc(COc2ccc(CCNc3ccncc3)cc2)cc1`: the Ki was found to be 7.9 µM in test [1] and 568 µM in test [2].
